Where two headings read alike, the source gives them in different places.
Assays:
[1] = Sialic acid/prodrug single dose PO crossover pharmacokinetics study; format: in vivo, cynomolgus monkeys; settings: for peak serum concentration (Cmax): serum sialic acid, mean n=3, single 100 mg/kg PO, fasted cynomolgus monkeys; for extent of the absorption: sialic acid API vs prodrug, single 100 mg/kg PO, cynomolgus monkeys
Description: Example 4. Sialic Acid/Prodrug Single Dose PO Crossover Pharmacokinetics Study in Cynomolgus Monkeys
A single oral dose crossover pharmacokinetic study of sialic acid (API) and prodrug (Compound 1—a valine ester of sialic acid as described above) was run in fasted cynomolgus monkeys (n=3). For this study, it was essential that the GI tract of the in vivo model have some similarities to human metabolism in order for the Pep Ti transporter system to be present, thus monkeys were chosen since they carry the same transporter in the gut as humans.
The 100 mg/kg dose level chosen was based on what is known for dosing of sialic acid which has passed complete toxicological evaluation and is safe up to 2,000 mg/kg NOAEL in dogs and rats. On Day 1, three female cynomolgus monkeys were dosed with 100 mg/kg sialic acid (API) and on Day 8 the same three cynomolgus monkeys were dosed with 100 mg/kg of the prodrug. Serum was collected at the following timepoints: predose, then 5 min, 15 min, 30 min, 1 hr, 2 hrs, 4 hrs, 8 hrs, 12 hrs and 24 hrs postdose. Urine samples were collected predose overnight, then at intervals 0-4 hrs, 4-8 hrs, 8-12 hrs and 12-24 hrs post dose. The data in FIG. 2A show the mean absorption values (n=3) of serum sialic acid on Days 1 and 8. The prodrug peak serum concentration is earlier (1 hr) than sialic acid API (2 hrs). […] The pharmacokinetic data in FIGS. 2B and 2C show group averages of sialic acid concentrations on Days 1 and 8.

[2] = rat, in vivo; cited from earlier work
[3] = dog, in vivo; cited from earlier work

Compound	peak serum concentration (Cmax) [1]	extent of the absorption [1]	NOAEL [2]	NOAEL [3]
CC(=O)NC1C(O)CC(O)(C(=O)O)OC1C(O)C(O)COC(=O)C(N)C(C)C (stereo not drawn) [Compound 1, 5-Acetylamino-6-[3-(2-amino-3-methyl-butyryloxy)-1,2-dihydroxy-propyl]-2,4-dihydroxy-tetrahydro-pyran-2-carboxylic acid]	857 ng/mL	similar		
CC(=O)N[C@H]1[C@H]([C@H](O)[C@H](O)CO)OC(O)(C(=O)O)C[C@@H]1O (stereo partly drawn) [sialic acid, N-acetylneuraminic acid]	1623 ng/mL	similar	2,000 mg/kg	2,000 mg/kg

Source: US10889607B2, “Sialic acid analogs” (Ultragenyx Pharmaceutical Inc., priority 2011, dated 2021)
